From patent publication US20260053932A1, “COMPOUNDS AND METHODS FOR THE TARGETED DEGRADATION OF ANDROGEN RECEPTOR AND ASSOCIATED METHODS OF USE” (Arvinas Operations, Inc., priority 2020, published 2026)

The molecules below were run on androgen receptor (AR) in LNCaP and/or VCaP cells (assay: Androgen Receptor ELISA assay (AR degradation)). Conditions: LNCaP and/or VCaP cells; 5 hours incubation; media with R1881; read-out: DC50 Code* (degradation of AR ELISA).
Type: cell-based
Summary of the method: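 VCaP cells grown ≥3 days, then treated 5 h with compound in media containing 1 nM R1881 (10× stock). Cells lysed and AR quantified by sandwich ELISA (mouse AR detection Ab, HRP anti-mouse, TMB). DC50 and Dmax derived from AR degradation.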

DC50 [nM] | Structure (SMILES)
< 1 | COc1cc(O[C@H]2CC[C@H](NC(=O)c3cnc(N4CC(CN(C(C)C)[C@H]5C[C@H](Oc6ccc7c(c6)C(=O)N(C6CCC(=O)NC6=O)C7=O)C5)C4)cn3)CC2)ccc1C#N (stereo partly drawn) [Compound 20, N-((1r,4r)-4-(4-cyano-3-methoxyphenoxy)cyclohexyl)-5-(3-((((1r,3r)-3-((2-(2,6-dioxopiperidin-3-yl)-1,3-dioxoisoindolin-5-yl)oxy)cyclobutyl) (isopropyl)amino)methyl)azetidin-1-yl)pyrazine-2-carboxamide]
< 1 | N#Cc1ccc(O[C@H]2CC[C@H](NC(=O)c3cnc(N4CCC(CN(C5CCOCC5)[C@H]5C[C@H](Oc6ccc7c(c6)C(=O)N(C6CCC(=O)NC6=O)C7=O)C5)CC4)cn3)CC2)cc1Cl (stereo partly drawn) [Compound 30, N-((1r,4r)-4-(3-chloro-4-cyanophenoxy)cyclohexyl)-5-(4-((((1r,3r)-3-((2-(2,6-dioxopiperidin-3-yl)-1,3-dioxoisoindolin-5-yl)oxy)cyclobutyl) (tetrahydro-2H-pyran-4-yl)amino)methyl)piperidin-1-yl)pyrazine-2-carboxamide]
< 1 | COc1cc(O[C@H]2CC[C@H](NC(=O)c3cnc(N4CCC(CN(C(C)C)[C@H]5C[C@H](Oc6ccc7c(c6)C(=O)N(C6CCC(=O)NC6=O)C7=O)C5)CC4)cn3)CC2)ccc1C#N (stereo partly drawn) [Compound 32, N-((1r,4r)-4-(4-cyano-3-methoxyphenoxy)cyclohexyl)-5-(4-((((1r,3r)-3-((2-(2,6-dioxopiperidin-3-yl)-1,3-dioxoisoindolin-5-yl)oxy)cyclobutyl) (isopropyl)amino)methyl)piperidin-1-yl)pyrazine-2-carboxamide]

Same assay, conditions: degradation of AR ELISA in LNCaP and/or VCaP cells; Table 2C; read-out: DC50 Code*

Structure (SMILES) | DC50 [nM]
Cc1cc(O[C@H]2C(C)(C)[C@H](NC(=O)c3ccc(N4CCC(CN(C(C)C)[C@H]5C[C@H](Oc6ccc7c(c6)C(=O)N(C6CCC(=O)NC6=O)C7=O)C5)CC4)cn3)C2(C)C)cc(C)c1C#N (stereo partly drawn) [compound 128, N-((1r,3r)-3-(4-cyano-3,5-dimethylphenoxy)-2,2,4,4-tetramethylcyclobutyl)-5-(4-((((1r,3r)-3-((2-(2,6-dioxopiperidin-3-yl)-1,3-dioxoisoindolin-5-yl)oxy)cyclobutyl) (isopropyl)amino)methyl)piperidin-1-yl)picolinamide] | 1 to 10
CCOc1cc(O[C@H]2C[C@H](N(CC3CCN(c4cnc(C(=O)N[C@H]5C(C)(C)[C@H](Oc6cc(C)c(C#N)c(C)c6)C5(C)C)cn4)CC3)C(C)C)C2)cc2c1C(=O)N(C1CCC(=O)NC1=O)C2=O (mixture of isomers) [compound 238, rac-N-((1r,3r)-3-(4-cyano-3,5-dimethylphenoxy)-2,2,4,4-tetramethylcyclobutyl)-5-(4-((((1r,3r)-3-((2-(2,6-dioxopiperidin-3-yl)-7-ethoxy-1,3-dioxoisoindolin-5-yl)oxy)cyclobutyl) (isopropyl)amino)methyl)piperidin-1-yl)pyrazine-2-carboxamide] | 1 to 10
CC1(C)[C@H](NC(=O)c2ccc(N3CCC(CN4CCN(c5ccc6c(c5)C(=O)N(C5CCC(=O)N(O)C5=O)C6=O)CC4)CC3)cc2)C(C)(C)[C@H]1Oc1ccc(C#N)c(Cl)c1 (stereo partly drawn) [compound 142, N-((1r,3r)-3-(3-chloro-4-cyanophenoxy)-2,2,4,4-tetramethylcyclobutyl)-4-(4-((4-(2-(1-hydroxy-2,6-dioxopiperidin-3-yl)-1,3-dioxoisoindolin-5-yl)piperazin-1-yl)methyl)piperidin-1-yl)benzamide] | > 100
[2H]C([2H])([2H])Oc1cc(O[C@H]2C(C)(C)[C@H](NC(=O)c3cnc(N4CCC(CN(C(C)C)[C@H]5C[C@H](Oc6cc(OC([2H])([2H])[2H])c7c(c6)C(=O)N(C6CCC(=O)NC6=O)C7=O)C5)CC4)cn3)C2(C)C)ccc1C#N (mixture of isomers) [compound 202, rac-N-((1r,3r)-3-(4-cyano-3-(methoxy-d3)phenoxy)-2,2,4,4-tetramethylcyclobutyl)-5-(4-((((1r,3r)-3-((2-(2,6-dioxopiperidin-3-yl)-7-(methoxy-d3)-1,3-dioxoisoindolin-5-yl)oxy)cyclobutyl) (isopropyl)amino)methyl)piperidin-1-yl)pyrazine-2-carboxamide] | < 1

The remaining lines, values ahead:

DC50 [nM] | Structure (SMILES)
< 1 | Cc1cc(O[C@H]2C(C)(C)[C@H](NC(=O)c3ccc(CN4CCOC[C@H]4CN4CCN(c5ccc6c(c5)C(=O)N(C5CCC(=O)NC5=O)C6=O)CC4)cc3)C2(C)C)cc(C)c1C#N (stereo partly drawn) [compound 183, N-((1r,3R)-3-(4-cyano-3,5-dimethylphenoxy)-2,2,4,4-tetramethylcyclobutyl)-4-(((3R)-3-((4-(2-(2,6-dioxopiperidin-3-yl)-1,3-dioxoisoindolin-5-yl)piperazin-1-yl)methyl)morpholino)methyl)benzamide]
< 1 | Cc1cc(O[C@H]2C(C)(C)[C@H](NC(=O)c3ccc(N4CCC(CN5CCC[C@H]5COc5ccc6c(c5)C(=O)N(C5CCC(=O)NC5=O)C6=O)CC4)cc3)C2(C)C)cc(C)c1C#N (stereo partly drawn) [compound 172, N-((1r,3S)-3-(4-cyano-3,5-dimethylphenoxy)-2,2,4,4-tetramethylcyclobutyl)-4-(4-(((2S)-2-(((2-(2,6-dioxopiperidin-3-yl)-1,3-dioxoisoindolin-5-yl)oxy)methyl)pyrrolidin-1-yl)methyl)piperidin-1-yl)benzamide]
< 1 | COCCN(CC1CCN(c2ccc(C(=O)N[C@H]3C(C)(C)[C@H](Oc4ccc(C#N)c(Cl)c4)C3(C)C)cc2)CC1)[C@H]1C[C@H](Oc2ccc3c(c2)C(=O)N(C2CCC(=O)NC2=O)C3=O)C1 (stereo partly drawn) [compound 184, N-((1r,3r)-3-(3-chloro-4-cyanophenoxy)-2,2,4,4-tetramethylcyclobutyl)-4-(4-((((1r,3r)-3-((2-(2,6-dioxopiperidin-3-yl)-1,3-dioxoisoindolin-5-yl)oxy)cyclobutyl)(2-methoxyethyl)amino)methyl)piperidin-1-yl)benzamide]
< 1 | CC1(C)[C@H](NC(=O)c2ccc(N3CCC(CCN4CC5CN(c6ccc7c(c6)C(=O)N(C6CCC(=O)NC6=O)C7=O)CC5C4)C3)cc2)C(C)(C)[C@H]1Oc1ccc(C#N)c(Cl)c1 (stereo partly drawn) [compound 111, N-((1r,3r)-3-(3-chloro-4-cyanophenoxy)-2,2,4,4-tetramethylcyclobutyl)-4-(3-(2-(5-(2-(2,6-dioxopiperidin-3-yl)-1,3-dioxoisoindolin-5-yl)hexahydropyrrolo[3,4-c]pyrrol-2(1H)-yl)ethyl)pyrrolidin-1-yl)benzamide]
< 1 | COCCN(CC1CCN(c2ccc(C(=O)N[C@H]3C(C)(C)[C@H](Oc4ccc(C#N)c(OC)c4)C3(C)C)nn2)CC1)[C@H]1C[C@H](Oc2cc(OC)c3c(c2)C(=O)N(C2CCC(=O)NC2=O)C3=O)C1 (stereo partly drawn) [compound 100, N-((1r,3r)-3-(4-cyano-3-methoxyphenoxy)-2,2,4,4-tetramethylcyclobutyl)-6-(4-((((1r,3r)-3-((2-(2,6-dioxopiperidin-3-yl)-7-methoxy-1,3-dioxoisoindolin-5-yl)oxy)cyclobutyl)(2-methoxyethyl)amino)methyl)piperidin-1-yl)pyridazine-3-carboxamide]
< 1 | COc1cc(O[C@H]2C(C)(C)[C@H](NC(=O)c3cnc(N4CC5(CC(CN(C(C)C)[C@H]6C[C@H](Oc7ccc8c(c7)C(=O)N(C7CCC(=O)NC7=O)C8=O)C6)C5)C4)cn3)C2(C)C)ccc1C#N (stereo partly drawn) [compound 122, N-((1r,3r)-3-(4-cyano-3-methoxyphenoxy)-2,2,4,4-tetramethylcyclobutyl)-5-(6-((((1r,3r)-3-((2-(2,6-dioxopiperidin-3-yl)-1,3-dioxoisoindolin-5-yl)oxy)cyclobutyl) (isopropyl)amino)methyl)-2-azaspiro[3.3]heptan-2-yl)pyrazine-2-carboxamide]
< 1 | Cc1cc(O[C@H]2C(C)(C)[C@H](NC(=O)c3cnc(N4CCC(CN(C(C)C)[C@H]5C[C@H](Oc6cccc7c6C(=O)N(C6CCC(=O)NC6=O)C7=O)C5)CC4)nc3)C2(C)C)cc(C)c1C#N (stereo partly drawn) [compound 88, N-((1r,3r)-3-(4-cyano-3,5-dimethylphenoxy)-2,2,4,4-tetramethylcyclobutyl)-2-(4-((((1r,3r)-3-((2-(2,6-dioxopiperidin-3-yl)-1,3-dioxoisoindolin-4-yl)oxy)cyclobutyl) (isopropyl)amino)methyl)piperidin-1-yl)pyrimidine-5-carboxamide]
< 1 | CC1(C)[C@H](NC(=O)c2ccc(N3CCC(CN4CC5CN(c6ccc7c(c6)C(=O)N(C6CCC(=O)NC6=O)C7=O)CC5C4)CC3)cc2)C(C)(C)[C@H]1Oc1ccc(C#N)c(Cl)c1 (stereo partly drawn) [compound 114, N-((1r,3r)-3-(3-chloro-4-cyanophenoxy)-2,2,4,4-tetramethylcyclobutyl)-4-(4-((5-(2-(2,6-dioxopiperidin-3-yl)-1,3-dioxoisoindolin-5-yl)hexahydropyrrolo[3,4-c]pyrrol-2(1H)-yl)methyl)piperidin-1-yl)benzamide]
< 1 | Cc1cc(O[C@H]2C(C)(C)[C@H](NC(=O)c3ccc(N4CCC5(CC4)CN(CCOc4ccc6c(c4)C(=O)N(C4CCC(=O)NC4=O)C6=O)CCO5)cc3)C2(C)C)cc(C)c1C#N (mixture of isomers) [compound 182, rac-N-((1r,3r)-3-(4-cyano-3,5-dimethylphenoxy)-2,2,4,4-tetramethylcyclobutyl)-4-(4-(2-((2-(2,6-dioxopiperidin-3-yl)-1,3-dioxoisoindolin-5-yl)oxy)ethyl)-1-oxa-4,9-diazaspiro[5.5]undecan-9-yl)benzamide]

Same assay, conditions: degradation of AR ELISA in LNCaP and/or VCaP cells; read-out: DC50 Code*

DC50 [nM] | Structure (SMILES)
1 to 10 | CC1(C)[C@H](NC(=O)c2ccc(N3CCC(CN4CCN(c5ccc6c(c5)C(=O)N(C5(C#N)CCC(=O)NC5=O)C6)CC4)CC3)cc2)C(C)(C)[C@H]1Oc1ccc(C#N)c(Cl)c1 (mixture of isomers) [compound 241, rac-N-((1r,3r)-3-(3-chloro-4-cyanophenoxy)-2,2,4,4-tetramethylcyclobutyl)-4-(4-((4-(2-(3-cyano-2,6-dioxopiperidin-3-yl)-3-oxoisoindolin-5-yl)piperazin-1-yl)methyl)piperidin-1-yl)benzamide]
1 to 10 | COc1cc(O[C@H]2C(C)(C)[C@H](NC(=O)c3ccc(N4CCC(CN5CCOCCCCOc6cc(cc7c6C(=O)N(C6CCC(=O)NC6=O)C7=O)O[C@H]6C[C@H]5C6)CC4)nn3)C2(C)C)ccc1C#N (stereo partly drawn) [compound 244]
